Experimental data as given in patent US9822130B2, “Triazolo-pyrazinyl derivatives useful as soluble guanylate cyclase activators” (Merck Sharp & Dohme Corp., priority 2014, dated 2017).

These compounds were tested against T1, sGC α1/β1 heterodimer stably expressed in CHO-K1 cell line (CHO-K1/sGC) (Homo sapiens, UniProt Q02108+Q02153) (assay: Cell-based sGC Functional Assay (CASA Assay), cGMP generation). Conditions: CHO-K1/sGC cells, 1 hr at 37° C., cGMP by HTRF, 4P fit; presence or absence of 1 μM DETA-NO not given; read-out: IP (nM) (inflection point).
T1 construct: expressed in transfected cells
T1 sequence (Q02108 1-690): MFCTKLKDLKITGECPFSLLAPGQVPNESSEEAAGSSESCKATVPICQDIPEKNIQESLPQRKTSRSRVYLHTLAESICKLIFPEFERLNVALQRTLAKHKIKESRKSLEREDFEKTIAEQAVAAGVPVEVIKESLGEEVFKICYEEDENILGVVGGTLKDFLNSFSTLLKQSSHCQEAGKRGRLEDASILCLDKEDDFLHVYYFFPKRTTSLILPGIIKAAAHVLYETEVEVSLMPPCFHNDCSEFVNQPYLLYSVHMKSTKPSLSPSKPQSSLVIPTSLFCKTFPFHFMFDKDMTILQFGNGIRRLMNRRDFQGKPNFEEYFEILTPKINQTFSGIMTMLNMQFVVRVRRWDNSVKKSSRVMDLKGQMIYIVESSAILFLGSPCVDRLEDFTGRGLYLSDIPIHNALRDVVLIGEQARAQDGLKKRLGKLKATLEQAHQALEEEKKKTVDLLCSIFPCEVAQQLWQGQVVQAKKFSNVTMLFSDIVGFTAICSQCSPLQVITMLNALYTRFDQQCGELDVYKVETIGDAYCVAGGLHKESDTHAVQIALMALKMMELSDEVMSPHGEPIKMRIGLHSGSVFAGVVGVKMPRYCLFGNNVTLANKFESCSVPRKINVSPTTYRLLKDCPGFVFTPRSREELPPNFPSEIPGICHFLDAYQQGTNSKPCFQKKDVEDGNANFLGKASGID
T1 sequence (Q02153 1-619): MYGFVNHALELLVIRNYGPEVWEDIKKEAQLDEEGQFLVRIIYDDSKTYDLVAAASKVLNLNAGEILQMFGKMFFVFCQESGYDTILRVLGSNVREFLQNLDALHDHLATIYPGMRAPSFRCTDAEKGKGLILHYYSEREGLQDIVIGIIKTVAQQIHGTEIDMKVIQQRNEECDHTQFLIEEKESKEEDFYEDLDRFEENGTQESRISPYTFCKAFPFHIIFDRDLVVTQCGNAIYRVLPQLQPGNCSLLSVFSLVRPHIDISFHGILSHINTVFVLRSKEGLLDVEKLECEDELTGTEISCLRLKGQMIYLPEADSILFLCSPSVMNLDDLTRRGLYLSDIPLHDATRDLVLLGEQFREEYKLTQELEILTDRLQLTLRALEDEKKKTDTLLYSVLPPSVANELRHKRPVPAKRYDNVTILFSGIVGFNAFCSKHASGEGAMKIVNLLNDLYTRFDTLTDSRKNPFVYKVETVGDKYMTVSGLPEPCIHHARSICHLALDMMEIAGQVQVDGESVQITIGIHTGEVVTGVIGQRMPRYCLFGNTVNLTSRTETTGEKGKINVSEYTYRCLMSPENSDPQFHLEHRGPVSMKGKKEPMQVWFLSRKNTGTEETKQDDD
How it was run: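 CHO-K1 cells stably expressing human sGC α1/β1 (4×10^5/mL, 0.5 mM IBMX) were treated with compounds (2.5% DMSO final) ± 1 μM DETA-NO for 1 hr at 37° C. Intracellular cGMP measured by HTRF. Activity expressed as % of Compound A maximal cGMP; IP and maximum fold induction from 4P fit.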

Row | Compound | EC50 [nM]
1 | CC1(c2nnc(C(F)(F)F)o2)C(=O)Nc2nc(-c3cn4ncnc4c(CCCC(F)(F)F)n3)nc(N)c21 (stereo not drawn) [Example 101A, 4-amino-5-methyl-2-(8-(4,4,4-trifluorobutyl)-[1,2,4]triazolo[1,5-a]pyrazin-6-yl)-5-(5-(trifluoromethyl)-1,3,4-oxadiazol-2-yl)-5H-pyrrolo[2,3-d]pyrimidin-6(7H)-one] | 121
2 | Cc1ccc(C2(C)C(=O)Nc3nc(-c4cn5ncnc5c(CCC(F)(F)C(F)(F)F)n4)nc(O)c32)nc1 (stereo not drawn) [Example 130B, 4-hydroxy-5-methyl-5-(5-methylpyridin-2-yl)-2-(8-(3,3,3,4,4,4-pentafluorobutyl)-[1,2,4]triazolo[1,5-a]pyrazin-6-yl)-5H-pyrrolo[2,3-d]pyrimidin-6(7H)-one] | 503
3 | COc1ccc(C2(C)C(=O)Nc3nc(-c4cn5ncnc5c(CCCC(F)(F)F)n4)nc(O)c32)nc1 (stereo not drawn) [Example 148A, 4-hydroxy-5-(5-methoxypyridin-2-yl)-5-methyl-2-(8-(4,4,4-trifluorobutyl)-[1,2,4]triazolo[1,5-a]pyrazin-6-yl)-5H-pyrrolo[2,3-d]pyrimidin-6(7H)-one] | 1090
4 | CCCc1nc(-c2nc(N)c3c(n2)NC(=O)C3(C)c2ccc(F)cn2)cn2nc(C)nc12 (stereo not drawn) [Example 92B, 4-amino-5-(5-fluoropyridin-2-yl)-5-methyl-2-(2-methyl-8-propyl-[1,2,4]triazolo[1,5-a]pyrazin-6-yl)-5H-pyrrolo[2,3-d]pyrimidin-6(7H)-one] | 4830
5 | C[C@@]1(c2ccc(F)cc2)C(=O)Nc2nc(-c3cn4ncnc4c(CCC(F)(F)F)n3)nc(O)c21 [Example 151A, (S)-5-(4-fluorophenyl)-4-hydroxy-5-methyl-2-(8-(3,3,3-trifluoropropyl)-[1,2,4]triazolo[1,5-a]pyrazin-6-yl)-5,7-dihydro-6H-pyrrolo[2,3-d]pyrimidin-6-one] | 1490
6 | CC1(c2ccc(C#N)cn2)C(=O)Nc2nc(-c3cn4ncnc4c(CCCC(F)(F)F)n3)nc(N)c21 (stereo not drawn) [Example 48A, 6-(4-amino-5-methyl-6-oxo-2-(8-(4,4,4-trifluorobutyl)-[1,2,4]triazolo[1,5-a]pyrazin-6-yl)-6,7-dihydro-5H-pyrrolo[2,3-d]pyrimidin-5-yl)nicotinonitrile] | 77.9
7 | CC1(c2ccc(Cl)cn2)C(=O)Nc2nc(-c3cn4ncnc4c(CCC(F)(F)C(F)(F)F)n3)nc(O)c21 (stereo not drawn) [Example 120A, 5-(5-chloropyridin-2-yl)-4-hydroxy-5-methyl-2-(8-(3,3,4,4,4-pentafluorobutyl)-[1,2,4]triazolo[1,5-a]pyrazin-6-yl)-5H-pyrrolo[2,3-d]pyrimidin-6(7H)-one] | 155
8 | CCCc1nc(-c2nc(N)c3c(n2)NC(=O)C3(c2ccc(Cl)cn2)C2CC2)cn2ncnc12 (stereo not drawn) [Example 57A, 4-amino-5-(5-chloropyridin-2-yl)-5-cyclopropyl-2-(8-propyl-[1,2,4]triazolo[1,5-a]pyrazin-6-yl)-5H-pyrrolo[2,3-d]pynmidin-6(7H)-one] | 577
9 | CC1(c2ccc(Cl)c(F)c2)C(=O)Nc2nc(-c3cn4ncnc4c(CCC(F)(F)C(F)(F)F)n3)nc(O)c21 (stereo not drawn) [Example 121B, 5-(4-chloro-3-fluorophenyl)-4-hydroxy-5-methyl-2-(8-(3,3,4,4,4-pentafluorobutyl)-[1,2,4]triazolo[1,5-a]pyrazin-6-yl)-5H-pyrrolo[2,3-d]pyrimidin-6(7H)-one] | 130

The next compounds have a lower EC50 than those just listed; values first:

Row | EC50 [nM] | Compound
10 | 7.3 | CC1(c2nnc(C3(F)CC3)o2)C(=O)Nc2nc(-c3cn4ncnc4c(CCCC(F)(F)F)n3)nc(N)c21 (stereo not drawn) [Example 109A, 4-amino-5-(5-(1-fluorocyclopropyl)-1,3,4-oxadiazol-2-yl)-5-methyl-2-(8-(4,4,4-trifluorobutyl)-[1,2,4]triazolo[1,5a]pyrazin-6-yl)-5H-pyrrolo[2,3-d] pyrimidin-6(7H)-one]
11 | 5.5 | CCCCc1nc(-c2nc(N)c3c(n2)NC(=O)C3(C)c2ccc(C)cn2)cn2ncnc12 (stereo not drawn) [Example 71B, 4-amino-2-(8-butyl-[1,2,4]triazolo[1,5-a]pyrazin-6-yl)-5-methyl-5-(5-methylpyridin-2-yl)-5H-pyrrolo[2,3-d]pyrimidin-6(7H)-one]
12 | 13 | Nc1nc(-c2cn3ncnc3c(CCCC(F)(F)F)n2)nc2c1C(c1ccc(Cl)cc1)(C1CC1)C(=O)N2 (stereo not drawn) [Example 31B, 4-amino-5-(4-chlorophenyl)-5-cyclopropyl-2-(8-(4,4,4-trifluorobutyl)-[1,2,4]triazolo[1,5-a]pyrazin-6-yl)-5H-pyrrolo[2,3-d]pyrimidin-6(7H)-one]
13 | 9.5 | CC1(c2ccccc2F)C(=O)Nc2nc(-c3cn4ncnc4c(CCC(F)(F)C(F)(F)F)n3)nc(O)c21 (stereo not drawn) [Example 170A, 5-(2-Fluorophenyl)-4-hydroxy-5-methyl-2-(8-(3,3,4,4,4-pentafluorobutyl)-[1,2,4]triazolo [1,5-a]pyrazin-6-yl)-5,7-dihydro-6H-pyrrolo [2,3-d]pyrimidin-6-one]
14 | 29.6 | C[C@@]1(c2ccc(F)cc2)C(=O)Nc2nc(-c3cn4ncnc4c(CCCC(F)(F)F)n3)nc(N)c21 [Example 23A, (S)-4-amino-5-(4-fluorophenyl)-5-mclhyl-2-(S-(4,4,4-trifluorobutyl)-[1,2,4]triazolo[1,5-a]pyrazin-6-yl)-5,7-dihydro-6H-pyrrolo[2,3-d]pyrimidin-6-one]
15 | 51 | CCCCc1nc(-c2nc(N)c3c(n2)NC(=O)C3(C)c2ccc(Cl)c(F)c2)cn2ncnc12 (stereo not drawn) [Example 62B, 4-amino-2-(8-butyl-[1,2,4]triazolo[1,5-a]pyrazin-6-yl)-5-(4-chloro-3-fluorophenyl)-5-methyl-5H-pyrrolo[2,3-d]pyrimidin-6(7H)-one]
16 | 22.6 | CCCCc1nc(-c2nc(N)c3c(n2)NC(=O)[C@@]3(C)c2ccc(F)cc2)cn2ncnc12 [Example 60A, (S)-4-amino-2-(8-butyl-[1,2,4]triazolo[1,5-a]pyrazin-6-yl)-5-(4-fluorophenyl)-5-methyl-5,7-dihydro-6H-pyrrolo[2,3-d]pyrimidin-6-one]
17 | 49.2 | N#Cc1ccc(C2(C3CC3)C(=O)Nc3nc(-c4cn5ncnc5c(CCCC(F)(F)F)n4)nc(N)c32)nc1 (stereo not drawn) [Example 117A, 6-(4-Amino-5-cyclopropyl-6-oxo-2-(8-(4,4,4-trifluorobutyl)-[1,2,4]triazolo[1,5-a]pyrazin-6-yl)-6,7-dihydro-5H-pyrrolo[2,3-d]pyrimidin-5-yl)nicotinonitrile]
18 | 19.7 | CCCCc1nc(-c2nc(N)c3c(n2)NC(=O)C3(c2ccccn2)C2CC2)cn2ncnc12 (stereo not drawn) [Example 116A, 4-amino-2-(8-butyl-[1,2,4]triazolo[1,5-a]pyrazin-6-yl)-5-cyclopropyl-5-(pyridin-2-yl)-5H-pyrrolo[2,3-d]pyrimidin-6(7H)-one]
19 | 10.6 | C[C@@]1(c2ccc(F)cc2)C(=O)Nc2nc(-c3cn4ncnc4c(Cc4ccc(F)cc4)n3)nc(N)c21 [Example 85B, (S)-4-amino-2-(8-(4-fluorobenzyl)-[1,2,4]triazolo[1,5-a]pyrazin-6-yl)-5-(4-fluorophenyl)-5-methyl-5H-pyrrolo[2,3-d]pyrimidin-6(7H)-one]
20 | 74.7 | Nc1nc(-c2cn3ncnc3c(CCC(F)(F)C(F)(F)F)n2)nc2c1C(c1nnc(C3CC3)o1)(C1CC1)C(=O)N2 (stereo not drawn) [Example 107A, 4-amino-5-cyclopropyl-5-(5-cyclopropyl-1,3,4-oxadiazol-2-yl)-2-(8-(3,3,4,4,4-pentafluorobutyl)-[1,2,4]triazolo[1,5-a]pyrazin-6-yl)-5H-pyrrolo[2,3-d]pyrimidin-6(7H)-one]
21 | 36.1 | Cc1ccc(C2(C3CC3)C(=O)Nc3nc(-c4cn5ncnc5c(CCC(F)(F)C(F)(F)F)n4)nc(N)c32)nc1 (racemic) [Example 17B, 4-amino-5-cyclopropyl-5-(5-methylpyridin-2-yl)-2-(8-(3,3,4,4,4-pentafluorobutyl)-[1,2,4]triazolo[1,5-a]pyrazin-6-yl)-5H-pyrrolo[2,3-d]pyrimidin-6(7H)-one]
